The values below come from patent US20130004579A1, “Use of Plant Lectins to Target Leukocytes” (priority 2011, published 2013).

For experiment [1], the system named is C57BL/6 splenocytes, T cells (CD3+). As to the kind of experiment: Lectin-conjugated NR-PS particle uptake by splenocyte populations (Example 8): T cells. The class given is cell-based, mouse. Conditions: lectin 100 μg/ml; live cells. How it is done: (§1) Splenocytes were isolated from C57BL/6 mice and cultured as described above, at a density of 2×10^6 cells/ml in a 96 well U-bottomed plate, in 100 μl of complete RPMI 1640 medium. Cells were incubated for 5, 10 or 30 minutes at 37° C. with NR-PS particles (5, 50 or 100 μg/ml) or NR-PS particles (5, 50 or 100 μg/ml) conjugated with biotinylated UEA-1 (100 μg/ml), biotinylated SBA (100 μg/ml), biotinylated PHA-E ([…]), biotinylated PHA-L (100 μg/ml) or biotinylated DSL (100 μg/ml). Cells were transferred to FACS tubes, washed in FACS buffer, centrifuged at 1200 rpm for 5 minutes (×3) and resuspended in 100 μl FACS buffer. Cells were then incubated with Fc Block™ (2.5 μg/ml; BD Pharmingen, San Diego, Calif.) for 10 minutes. Determination of cell types was achieved by labelling characteristic cell surface markers with fluorescently-labelled antibodies—T cells were determined as being CD3^+, dendritic cells CD11c^+, macrophages F4/80^+, granulocytes Gr1^+ and B cells CD19^+. Cells were incubated on ice for 30 minutes in the dark and then washed in FACS buffer and centrifuged at 1200 rpm for 5 minutes (×3). After washing, cells were resuspended in 200 μl of FACS buffer.
(§2) A CyAn™ ADP flow cytometer (Beckman Coulter, Inc., Miami, Fla.), Summit™ software (Dako North America, Inc., Carpinteria, Calif.) and FlowJo™ software (Treestar, Inc., Ashland, Oreg.) were used to analyze the uptake of particles by various cells populations. Live cells were gated on by their FSC and SSC properties in order to roughly estimate the degree of cell death. Particle uptake was calculated for each cell subtype from the data in FIGS. 11A-11D, showing the percentages of both cell marker- and particle-positive cells within the live cell population. Unstimulated cells were used as controls.

In experiment [2] the test system is Bone marrow-derived macrophages (iBMMs). As to the kind of experiment: Flow cytometry uptake of lectin-conjugated NR-PS particles by live iBMMs (Example 6). The class given is cell-based. To be noted: 10 minute incubation; lectin 100 μg/ml. As to the method:
(§3) C57BL/6 BMDCs and iBMMs were isolated and cultured as described above at a density of 1×10^6 cells/ml in a 96 well U-bottomed plate in 100 μl complete RPMI 1640 medium with 10 ng/ml GM-CSF. Cells were stimulated for 10 or 30 minutes at 37° C. with NR-PS particles (5, 50 or 100 μg/ml) or NR-PS particles (5, 50 or 100 μg/ml) conjugated with biotinylated UEA-1 (100 μg/ml), biotinylated SBA (100 μg/ml), biotinylated PHA-E (100 μg/ml), biotinylated PHA-L (100 μg/ml) or biotinylated DSL (100 μg/ml). Cells were then scraped into FACS tubes, washed in FACS buffer, centrifuged at 1200 rpm for 5 minutes (×3) and resuspended in 200 μl of FACS buffer.
(§4) A FACSCanto™ II flow cytometer (BD Biosciences, San Jose, Calif.), FACSDiva™ software (BD Biosciences, San Jose, Calif.) and FlowJo™ software (Treestar, Inc., Ashland, Oreg.) were used to analyze the uptake of particles by various cell populations. Live cells were gated on by their FSC and SSC properties in order to estimate the degree of cell death. Particle uptake was quantified by determining the percentage of live cells taking up particles. Unstimulated cells were used as controls.
(In general: Flow cytometry measures light scatter and fluorescence of single cells or particles in a stream.)

For experiment [3], the system named is C57BL/6 BMDCs. As to the kind of experiment: Flow cytometry uptake of lectin-conjugated NR-PS particles by live BMDCs (Example 6). The class given is cell-based, mouse. Conditions: 30 minute incubation; lectin 100 μg/ml. As to the method:
as §3, §4

Experiment [4] deals with C57BL/6 splenocytes, dendritic cells (CD11c+). As to the kind of experiment: Lectin-conjugated NR-PS particle uptake by splenocyte populations (Example 8): dendritic cells. To be noted: lectin 100 μg/ml; live cells. Type of experiment: cell-based, mouse. As to the method:
as §1, §2

The test system of experiment [5] is C57BL/6 splenocytes, B cells (CD19+). As to the kind of experiment: Lectin-conjugated NR-PS particle uptake by splenocyte populations (Example 8): B cells. Conditions: lectin 100 μg/ml; live cells. Type of experiment: cell-based, mouse. How it is done: as §1, §2
In experiment [6] the test system is C57BL/6 splenocytes, granulocytes (Gr1+). As to the kind of experiment: Lectin-conjugated NR-PS particle uptake by splenocyte populations (Example 8): granulocytes. The class given is cell-based, mouse. Conditions: lectin 100 μg/ml; live cells. As to the method: as §1, §2
In experiment [7] the test system is C57BL/6 splenocytes, macrophages (F4/80+). As to the kind of experiment: Lectin-conjugated NR-PS particle uptake by splenocyte populations (Example 8): macrophages. The class given is cell-based, mouse. To be noted: lectin 100 μg/ml; live cells. As to the method:
as §1, §2

Experiment [8] concerns IL-1β production by bone marrow-derived dendritic cells (BMDCs). Kind of experiment: IL-1β ELISA on supernatants of BMDCs incubated with particles. The class given is cell-based, mouse. Conditions: C57BL/6 BMDCs; LPS 1 ng/ml; serial dilutions SC-PS 31.25 μg/ml to 1 mg/ml with lectin 1.56 to 50 μg/ml; vs unconjugated SC-PS. How it is done: (§5) BMDCs were isolated and cultured as described in Example 2 at a density of 6.25×10^5 cells/ml in 96 well U-bottomed microplates. Cells were stimulated with a Toll-like receptor (TLR) ligand (LPS or Pam2CSK4) for 6 hours. Cells were then incubated with either medium, alum/SC-PS particles, alum/SC-PS particles conjugated with UEA-1, alum/SC-PS particles conjugated with UEA-1 mimetic or with UEA-1 alone for 24 hours. After incubation, supernatants from BMDCs were collected and cytokine concentrations measured by ELISA. Antibody pairs specific for each cytokine were used for immunoassaying. The following cytokines were measured by immunoassay: IL-1α, IL-1β.
(§6) Capture antibodies were obtained from BD Pharmingen (San Diego, Calif.), BioLegend (San Diego, Calif.) and R&D Systems, Inc. (Minneapolis, Minn.) and prepared according to the manufacturer's specifications (see Table 2) and a volume of 40 μl/well added to high-binding 96 well ELISA plates. Plates were then incubated for 2 hours at 37° C. or overnight at 4° C. After incubation, plates were washed in PBS-T (×3) and tapped dry. Plates were then blocked with the appropriate blocking solution (see Table 2) and incubated for 2 hours at 37° C. After incubation plates were washed in PBS-T (×3) and tapped dry. Supernatants were transferred from cell culture plates to fresh 96 well plates. All supernatants were stored at −20° C. when not in use. Cell supernatants were applied to plates at the indicated dilutions (see Table 2). A blank triplicate was left on each plate containing the diluent as a blank. Standards were prepared at the starting concentration in the recommended diluent as specified by the manufacturer and transferred to a 96 well plate and serial dilutions (1:2) performed (see Table 2). All standards and samples were applied to plates at 40 μl/well total volume for incubation overnight at 4° C. After incubation plates were washed with PBS-T (×5) and tapped dry. […] Plates were then stopped by the addition of 20 μl/well of 1M H2SO4 and read. […]
On the technique in general: An ELISA detects its analyte on a solid surface through an enzyme-linked reagent.

Experiment [9] relates to IL-1α production by bone marrow-derived dendritic cells (BMDCs). Kind of experiment: IL-1α ELISA on supernatants of BMDCs incubated with particles. Type of experiment: cell-based, mouse. To be noted: C57BL/6 BMDCs; LPS 1 ng/ml; serial dilutions SC-PS 31.25 μg/ml to 1 mg/ml with lectin 1.56 to 50 μg/ml; vs unconjugated SC-PS. As to the method:
as §5, §6

Turning to “NR-PS particles conjugated with biotinylated PHA-E: Nile Red streptavidin-coated polystyrene particles conjugated with biotinylated Phaseolus vulgaris erthyroagglutinin”, the “percentage of T cells found to have taken up particles” value (shortened to “percentage of T cells found”) in experiment [1] amounted to 18.1%. In addition, the “percentage of live iBMMs found to have taken up particles” value (shortened to “percentage of live iBMMs found”) in experiment [2] stood at 91.0%. The “percentage of live BMDCs found to have taken up particles” value (from here on “percentage of live BMDCs found”) in [3] is reported as 89.7%. In addition, the “percentage of dendritic cells found to have taken up particles” value (“percentage of dendritic cells found” for short) in experiment [4] is 67.7%. Besides, in experiment [5], the “percentage of B cells found to have taken up particles” value (from here on “percentage of B cells found”) is recorded as 45.5%. In [6], the “percentage of granulocytes found to have taken up particles” value (from here on “percentage of granulocytes found”) turned out to be 74.0%. For the same molecule, in experiment [7], the “percentage of macrophages found to have taken up particles” value (shortened to “percentage of macrophages found”) worked out at 79.4%.
“NR-PS particles conjugated with biotinylated SBA: Nile Red streptavidin-coated polystyrene particles conjugated with biotinylated soybean agglutinin”: the “percentage of T cells found” value in experiment [1] was 6.4%. Moreover, the “percentage of live iBMMs found” value in experiment [2] is 93.4%. Also, the “percentage of live BMDCs found” value in [3] is 83.2%. Further, the “percentage of dendritic cells found” value in experiment [4] was found to be 56.3%. The “percentage of B cells found” value in experiment [5] is 70.8%. Further, the “percentage of granulocytes found” value in experiment [6] was found to be 65.6%. Further, the “percentage of macrophages found” value in [7] stood at 84.8%.
Turning to “NR-PS particles conjugated with biotinylated PHA-L: Nile Red streptavidin-coated polystyrene particles conjugated with biotinylated Phaseolus vulgaris leukoagglutinin”, the “percentage of T cells found” value in experiment [1] is 62.4%. Besides, in experiment [2], the “percentage of live iBMMs found” value is 79.6%. For the same molecule, the “percentage of live BMDCs found” value in [3] is listed as 89.6%. In [4], the “percentage of dendritic cells found” value was found to be 79.0%. Besides, in experiment [5], the “percentage of B cells found” value is given as 80.5%. Besides, in experiment [6], the “percentage of granulocytes found” value was 80.7%. Besides, the “percentage of macrophages found” value in experiment [7] stood at 89.9%.

B1: PNA: SC-PS particles conjugated with biotinylated peanut agglutinin (conjugate, UniProt P02872 24-273, looked up)
Galactose-binding lectin: AETVSFNFNSFSEGNPAINFQGDVTVLSNGNIQLTNLNKVNSVGRVLYAMPVRIWSSATGNVASFLTSFSFEMKDIKDYDPADGIIFFIAPEDTQIPAGSIGGGTLGVSDTKGAGHFVGVEFDTYSNSEYNDPPTDHVGIDVNSVDSVKTVPWNSVSGAVVKVTVIYDSSTKTLSVAVTNDNGDITTIAQVVDLKAKLPERVKFGFSASGSLGGRQIHLIRSWSFTSTLITTTRRSIDNNEKKIMNMASA
modifications: biotinylated, on streptavidin polystyrene particles
notes: SC-PS particles conjugated with biotinylated peanut agglutinin
With B1, the “TLR-4 agonist-primed IL-1β production” value in [8] is listed as “increased”. Moreover, the “TLR-4 agonist-primed IL-1α production” value in experiment [9] is “increased IL-1α production across all five of the serial dilutions”.
